{"source": "patent US20050048587A1", "about": "“Methods for identifying tolerance modulatory compounds and uses therefor” (TolerRx, Inc., priority 2003, published 2005)", "molecules": {"B1": {"name": "IL4: cytokine known to initiate the differentiation of Th2 cells (protein, UniProt P05112 25-153, looked up)", "Interleukin-4": "HKCDITLQEIIKTLNSLTEQKTLCTELTVTDIFAASKNTTEKETFCRAATVLRQFYSHHEKDTRCLGATAQQFHRHKQLIRFLKRLDRNLWGLAGLNSCPVKEANQSTLENFLERLKTIMREKYSKCSS"}}, "format_in_all_cases": "cell-based, human", "key": {"[1]": {"test_system": "FOXP3", "test": "FOXP3 transcription factor mRNA expression, real-time PCR, in stimulated PBL", "details": "PBL stimulated 72 hrs with anti-CD3/anti-CD28 in presence of agent; relative to stimulated PBL without agent", "procedure": "(§1) CD4+CD45RA+naïve, CD4+CD45RA−memory cells were prepared as follows. A Buffy Coat from human peripheral blood was obtained from the Oklahoma Blood Institute and processed as follows. Blood was diluted 1:2 with PBS without Ca^++Mg^++. 30 ml diluted blood was overlaid onto 15 ml Ficoll. Tubes were spun for ˜30 minutes at 2000 rpm. The Buffy cell layer was harvested into 25 ml PBS and brought to a volume of 45 ml total. Tubes were then spun ˜10 minutes at […]. Tubes were finally combined and washed with PBS. Approximately 10 percent of the cell preparation was set aside (X-VIVO 15 media+10% FCS) and is referred to hereinafter as “PBL.”\n(§2) Cells (i.e., PDL, CD4+ naive, and CD4+ memory cells), were plated in six well dishes at approximately 3-4×10^6 cells/well. Prior to plating, wells were coated with αCD3/αCD28 antibodies. This was achieved by incubating the wells in the presence of antibodies for approximately 2 hrs at 37° C. Wells were subsequently washed with PBS. Cells were plated in X-VIVO 15 with 10% FCS. […]\n(§3) 2.5 μl Assay on Demand reagent (Applied Biosystems) were added to 25 μl TaqMan Master MiX™ and samples brought to a total volume of 50 μl with RNAse-free water. […] Reactants were detected using an Applied Biosystems QPCR instrument (i.e., ABI Program 7000 SDS Sequence Detection System). […] The relative expression of the markers in each cell type and at each time point was also determined. […]"}, "[2]": {"test_system": "Treg cells", "test": "[3H] thymidine proliferation assay of differentiated Treg cells", "details": "anti-CD3/CD-28 coated wells, 72 hrs with drug, [3H] thymidine incorporation", "procedure": "(§4) Resting, fully differentiated Th1, Th2 and Treg were seeded in wells of a 96 well plate coated with anti-CD3 and CD-28. Cells (200,000 per well) were grown in the presence or absence of a known immunomodulatory drugs including rapamycin, cyclosporine A and Cellcept (MMF) (antiproliferative agent) at the concentrations indicated for 72 hrs prior to the addition of [^3H] thymidine. The cells were then incubated with [^3H] thymidine (0.5 μCi/well) for an additional 6-18 hrs and harvested. [^3H] thymidine incorporation was determined by liquid scintillation counting."}, "[3]": {"test_system": "Th2 cytokines", "test": "Cytokine production by differentiated Th2 cells, multiplexed ELISA", "details": "anti-CD3/CD-28 coated wells, 72 hrs with drug, supernatants", "procedure": "(§5) Resting, fully differentiated Th1, Th2 and Treg were seeded in wells sof a 96 well plate coated with anti-CD3 and CD-28. Cells (200,000 per well) were grown in the presence or absence of a known immunomodulatory drugs including rapamycin, cyclosporine A and Cellcept (MMF) (antiproliferative agent) at the concentrations indicated for 72 hrs prior to the collection of supernatants for measurement of secreted cytokines. Cytokine measurement were made using a multiplexed ELISA assay (Pierce/Endogen Searchlight Assay)."}, "[4]": {"test_system": "Tbox21", "test": "Tbox21 (TBX21) transcription factor mRNA expression, real-time PCR, in stimulated PBL", "details": "PBL stimulated 72 hrs with anti-CD3/anti-CD28 in presence of agent; relative to stimulated PBL without agent", "procedure": "as §1, §2, §3"}, "[5]": {"test_system": "GATA3", "test": "GATA3 transcription factor mRNA expression, real-time PCR, in stimulated PBL", "details": "PBL stimulated 72 hrs with anti-CD3/anti-CD28 in presence of agent; relative to stimulated PBL without agent", "procedure": "as §1, §2, §3"}, "[6]": {"test_system": "Th1 cytokines", "test": "Cytokine production by differentiated Th1 cells, multiplexed ELISA", "details": "anti-CD3/CD-28 coated wells, 72 hrs with drug, supernatants", "procedure": "as §5"}, "[7]": {"test_system": "TGFβ by Treg cells", "test": "TGFβ production by differentiated Treg cells, multiplexed ELISA", "details": "anti-CD3/CD-28 coated wells, 72 hrs with drug, supernatants", "procedure": "as §5"}, "[8]": {"test_system": "Th2 cells", "test": "[3H] thymidine proliferation assay of differentiated Th2 cells", "details": "anti-CD3/CD-28 coated wells, 72 hrs with drug, [3H] thymidine incorporation", "procedure": "as §4"}, "[9]": {"test_system": "Th1 cells", "test": "[3H] thymidine proliferation assay of differentiated Th1 cells", "details": "anti-CD3/CD-28 coated wells, 72 hrs with drug, [3H] thymidine incorporation", "procedure": "as §4"}, "[10]": {"test_system": "peripheral blood lymphocytes (PBLs)", "test": "Assay of cell proliferation of stimulated PBL", "details": "PBL stimulated with anti-CD3/anti-CD28, 72 hours", "procedure": "FIG. 3 graphically depicts the proliferation of peripheral blood lymphocytes (PBLs) at 72 hours post-stimulation with αCD3/αCD28 in the presence of the known immunomodulatory agents, rapamycin, cyclosporine, and Cellcept (MMF) (anti-proliferative agent). Proliferation is relative to that observed in control, stimulated PBL (in the absence of any added agent).\nPBL were activated with anti-CD3 in combination with anti-CD28 in the presence or absence of the known immunomodulatory drugs including dexamethasone, rapamycin, cyclosporine A and Cellcept (antiproliferative agent) at the concentrations indicated. At 72 hours, RNA was prepared from the treated cells and the untreated controls. Real-time PCR was performed using cDNA from the RNA and using the primers and probes for the three transcription factors. The data are set forth in FIG. 2A-D. Dexamethasone is documented to result in a shift of in vivo immune responses towards characteristics recognized to be associated with Th2 cells when administered to both humans and animals. […] Rapamycin and cyclosporine are general immunosuppressants utilized to prevent allograft rejection in humans. Both drugs are known to utilize common cellular components. […] Cellcept is an anti-proliferative agent also used in organ transplantation. Its primary effect on the immune system is believed to be simple reduction of lymphocyte proliferation."}}, "data": [{"molecule": "TGFβ", "values": [{"measurement": "effect on FOXP3 (Treg transcription factor) expression", "setting": "[1]", "value": "induced"}]}, {"molecule": "COc1c(C)c2c(c(O)c1C/C=C(\\C)CCC(=O)OCCN1CCOCC1)C(=O)OC2", "note": "[Cellcept]", "values": [{"measurement": "effect on proliferation (expansion) of Treg cells", "setting": "[2]", "value": "equally inhibited the expansion of all cell types in a dose dependent manner"}, {"measurement": "effect on Th2 cytokine production", "setting": "[3]", "value": "does not suppress"}, {"measurement": "effect on Tbox21/TBX21 (Th1 transcription factor) expression", "setting": "[4]", "value": "did not affect"}, {"measurement": "effect on GATA3 (Th2 transcription factor) expression", "setting": "[5]", "value": "did not affect"}, {"measurement": "effect on FOXP3 (Treg transcription factor) expression", "setting": "[1]", "value": "did not affect"}, {"measurement": "effect on Th1 cytokine production", "setting": "[6]", "value": "does not suppress"}, {"measurement": "effect on production of TGFβ by Treg cells", "setting": "[7]", "value": "does not suppress any cytokine measured except for TGFβ in T reg cells"}, {"measurement": "effect on proliferation of Th2 cells", "setting": "[8]", "value": "equally inhibited the expansion of all cell types in a dose dependent manner"}, {"measurement": "effect on proliferation of Th1 cells", "setting": "[9]", "value": "equally inhibited the expansion of all cell types in a dose dependent manner"}, {"measurement": "effect on cell proliferation", "setting": "[10]", "value": "dose-dependent inhibition of proliferation"}]}, {"molecule": "B1", "values": [{"measurement": "effect on GATA3 (Th2 transcription factor) expression", "setting": "[5]", "value": "clearly increased"}]}]}
